Laboratory results from patent USRE42890E1, “Furazanobenzimidazoles” (Basilea Pharmaceutica AG, priority 2003, dated 2011).
Where two headings read alike, the source gives them in different places.

What was measured:
[1] = tested on: adherent cells or suspension cells; experiment: Hoechst 33342 nuclear staining (fraction of apoptotic nuclei); assay type: cell-based; parameters: key: 0 relating to no activity; 1 relating to weak activity comprising less than 70% of the cells; score 2 relating to strong activity comprising more than 70% of the cells
HT1080 = experiment: MTS proliferation assay, HT1080; assay type: cell-based, human; conditions: HT1080, 72 h incubation, read-out: MTS proliferation assay IC 50 HT1080
In short: (§1)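 Cells were seeded 24 h before treatment and exposed to compound at 10, 3, 1 and 0.3 μM final for 72 h at 37 °C, 7.5% CO2 in RPMI-1640 with 5% or 10% FCS. Viability was read by MTS reagent (3 h) as absorbance at 492 nm.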

MRC5 = experiment: MTS proliferation assay, MRC5; assay type: cell-based; conditions: MRC5, 72 h incubation, read-out: MTS proliferation assay IC 50 MRC5
In short: (§2)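 Cells in RPMI-1640 with 5% or 10% FCS, 2-mercaptoethanol and glutamine were seeded 24 h before treatment with compound at final 10, 3, 1 and 0.3 μM. After 72 h at 37° C and 7.5% CO2, MTS reagent was added for 3 h and absorbance read at 492 nm.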

Jurkat = experiment: MTS proliferation assay, Jurkat; assay type: cell-based, human; conditions: 72 h incubation, read-out: MTS proliferation assay IC 50 Jurkat
In short: as §1

HeLa = experiment: MTS proliferation assay, HeLa; assay type: cell-based, human; conditions: 72 h incubation, read-out: MTS proliferation assay IC 50 HeLa
In short: as §1

Jily = experiment: MTS proliferation assay, Jily; assay type: cell-based; conditions: 72 h incubation, read-out: MTS proliferation assay IC 50 Jily
In short: as §2

SMILES | IC50 (HT1080) | Hoechst 33342 nuclear staining score ([1]; H460, conc 0.01 μm) | Hoechst 33342 nuclear staining score ([1]; H460, conc 0.1 μm) | Hoechst 33342 nuclear staining score ([1]; H460, conc 1 μm) | Hoechst 33342 nuclear staining score ([1]; HeLa, conc 0.01 μm) | Hoechst 33342 nuclear staining score ([1]; HeLa, conc 0.1 μm) | Hoechst 33342 nuclear staining score ([1]; HeLa, conc 1 μm) | Hoechst 33342 nuclear staining score ([1]; Jily, conc 0.01 μm) | Hoechst 33342 nuclear staining score ([1]; Jily, conc 0.1 μm) | Hoechst 33342 nuclear staining score ([1]; Jily, conc 1 μm) | Hoechst 33342 nuclear staining score ([1]; Jurkat, conc 0.01 μm) | Hoechst 33342 nuclear staining score ([1]; Jurkat, conc 0.1 μm) | Hoechst 33342 nuclear staining score ([1]; Jurkat, conc 1 μm) | Hoechst 33342 nuclear staining score ([1]; MRC5, conc 0.01 μm) | Hoechst 33342 nuclear staining score ([1]; MRC5, conc 0.1 μm) | Hoechst 33342 nuclear staining score ([1]; MRC5, conc 1 μm) | Hoechst 33342 nuclear staining score ([1]; PBLs, conc 0.01 μm) | Hoechst 33342 nuclear staining score ([1]; PBLs, conc 0.1 μm) | Hoechst 33342 nuclear staining score ([1]; PBLs, conc 1 μm) | IC50 (Jily) | further results
Nc1nonc1-c1nc2ccccc2n1CC(=O)c1ccc([N+](=O)[O-])cc1 [Example 49] | > 1000 nM | 0 | 0 | 0 | 0 | 0 | 1 (1 relating to weak activity comprising less than 70% of the cells) | 0 | 0 | 1 (1 relating to weak activity comprising less than 70% of the cells) | 0 | 0 | 2 (score 2 relating to strong activity comprising more than 70% of the cells) | 0 | 0 | 0 | 0 | 0 | 0 | 100 to 1000 nM | IC50 (MRC5): > 1000 nM; IC50 (Jurkat): 100 to 1000 nM; IC50 (HeLa): > 1000 nM
COc1ccc(C(=O)Cn2c(-c3nonc3NCCC#N)nc3ccccc32)cc1 [Example 48] | 10 to 100 nM | 0 | 0 | 2 (score 2 relating to strong activity comprising more than 70% of the cells) | 0 | 2 (score 2 relating to strong activity comprising more than 70% of the cells) | 2 (score 2 relating to strong activity comprising more than 70% of the cells) | 0 | 2 (score 2 relating to strong activity comprising more than 70% of the cells) | 2 (score 2 relating to strong activity comprising more than 70% of the cells) | 0 | 2 (score 2 relating to strong activity comprising more than 70% of the cells) | 2 (score 2 relating to strong activity comprising more than 70% of the cells) | 0 | 2 (score 2 relating to strong activity comprising more than 70% of the cells) | 2 (score 2 relating to strong activity comprising more than 70% of the cells) | 0 | 0 | 0 | 10 to 100 nM | IC50 (MRC5): 10 to 100 nM; IC50 (Jurkat): < 10 nM; IC50 (HeLa): 10 to 100 nM
COC(=O)CCNc1nonc1-c1nc2ccccc2n1CC(=O)c1ccc(Cl)cc1 [Example 9, 4-[1-(4-Chlorophenacyl)-1H-benzimidazol-2-yl]-furazan-3-yl-N-(2-methoxycarbonylethyl)-amine] | – | 0 | 0 | 0 | 0 | 0 | 2 (score 2 relating to strong activity comprising more than 70% of the cells) | 0 | 0 | 2 (score 2 relating to strong activity comprising more than 70% of the cells) | 0 | 0 | 2 (score 2 relating to strong activity comprising more than 70% of the cells) | 0 | 0 | 2 (score 2 relating to strong activity comprising more than 70% of the cells) | 0 | 0 | 2 (score 2 relating to strong activity comprising more than 70% of the cells) | 100 to 1000 nM | IC50 (HT1080; Homo sapiens, HT-1080): 100 to 1000 nM; IC50 (MRC5; Homo sapiens): 100 to 1000 nM; IC50 (Jurkat; Homo sapiens): 100 to 1000 nM; IC50 (HeLa; Homo sapiens): 100 to 1000 nM
CN(C)c1nonc1-c1nc2ccccc2n1CC(=O)c1ccc(Cl)cc1 [Example 4, Dimethyl-{4-[1-(4-chlorophenacyl)-1H-benzimidazol-2-yl]-furazan-3-yl}-amine] | – | 0 | 0 | 1 (1 relating to weak activity comprising less than 70% of the cells) | 0 | 0 | 2 (score 2 relating to strong activity comprising more than 70% of the cells) | 0 | 0 | 2 (score 2 relating to strong activity comprising more than 70% of the cells) | 0 | 0 | 2 (score 2 relating to strong activity comprising more than 70% of the cells) | 0 | 0 | 2 (score 2 relating to strong activity comprising more than 70% of the cells) | 0 | 0 | 0 | 100 to 1000 nM | IC50 (HT1080; Homo sapiens, HT-1080): 100 to 1000 nM; IC50 (MRC5; Homo sapiens): 100 to 1000 nM; IC50 (Jurkat; Homo sapiens): 10 to 100 nM; IC50 (HeLa; Homo sapiens): 100 to 1000 nM

More lines, main results first:

IC50 (HT1080) | SMILES | Hoechst 33342 nuclear staining score ([1]; H460, conc 0.01 μm) | Hoechst 33342 nuclear staining score ([1]; H460, conc 0.1 μm) | Hoechst 33342 nuclear staining score ([1]; H460, conc 1 μm) | Hoechst 33342 nuclear staining score ([1]; HeLa, conc 0.01 μm) | Hoechst 33342 nuclear staining score ([1]; HeLa, conc 0.1 μm) | Hoechst 33342 nuclear staining score ([1]; HeLa, conc 1 μm) | Hoechst 33342 nuclear staining score ([1]; Jily, conc 0.01 μm) | Hoechst 33342 nuclear staining score ([1]; Jily, conc 0.1 μm) | Hoechst 33342 nuclear staining score ([1]; Jily, conc 1 μm) | Hoechst 33342 nuclear staining score ([1]; Jurkat, conc 0.01 μm) | Hoechst 33342 nuclear staining score ([1]; Jurkat, conc 0.1 μm) | Hoechst 33342 nuclear staining score ([1]; Jurkat, conc 1 μm) | Hoechst 33342 nuclear staining score ([1]; MRC5, conc 0.01 μm) | Hoechst 33342 nuclear staining score ([1]; MRC5, conc 0.1 μm) | Hoechst 33342 nuclear staining score ([1]; MRC5, conc 1 μm) | Hoechst 33342 nuclear staining score ([1]; PBLs, conc 0.01 μm) | Hoechst 33342 nuclear staining score ([1]; PBLs, conc 0.1 μm) | Hoechst 33342 nuclear staining score ([1]; PBLs, conc 1 μm) | IC50 (Jily) | further results
> 1000 nM | Cl.Nc1ccc(OCn2c(-c3nonc3N)nc3ccccc32)cc1 [Example 100] | 0 | 0 | 0 | 0 | 0 | 0 | 0 | 0 | 1 (1 relating to weak activity comprising less than 70% of the cells) | 0 | 0 | 1 (1 relating to weak activity comprising less than 70% of the cells) | 0 | 0 | 0 | 0 | 0 | 0 | > 1000 nM | IC50 (MRC5): > 1000 nM; IC50 (Jurkat): 100 to 1000 nM; IC50 (HeLa): > 1000 nM
100 to 1000 nM | COc1cc(C(=O)Cn2c(-c3nonc3N)nc3ccccc32)ccc1OCc1ccccc1 [Example 73] | 0 | 0 | 2 (score 2 relating to strong activity comprising more than 70% of the cells) | 0 | 0 | 1 (1 relating to weak activity comprising less than 70% of the cells) | 0 | 0 | 1 (1 relating to weak activity comprising less than 70% of the cells) | 0 | 0 | 2 (score 2 relating to strong activity comprising more than 70% of the cells) | 0 | 0 | 1 (1 relating to weak activity comprising less than 70% of the cells) | 0 | 0 | 0 | 100 to 1000 nM | IC50 (MRC5): 100 to 1000 nM; IC50 (Jurkat): 100 to 1000 nM; IC50 (HeLa): 100 to 1000 nM
